Laboratory results from patent US20050182252A1, “Novel 2'-C-methyl nucleoside derivatives” (priority 2004, published 2005).
Structures can show the parent of a compound that is named as a salt.

Which melting point does the source give for `C[C@@]1(O)[C@H](O)[C@@H](COP2(=O)OCC[C@H](c3ccc(F)c(Br)c3)O2)O[C@H]1n1ccc2c(N)ncnc21` (stereo partly shown) (as salt: salt) [Compound 16.31] here?
The melting point was 122 to 125 °C.

Which melting point does the source give for `C[C@@]1(O)[C@H](O)[C@@H](COP2(=O)OCC[C@H](c3ccc(Cl)c(Cl)c3)O2)O[C@H]1n1ccc2c(=O)[nH]c(N)nc21` (stereo partly drawn) (as salt: salt) [Compound 17.22, 2-amino-7-(cis-5′-O-[4-(3,4-dichlorophenyl)-2-oxo-1,3,2-dioxaphosphorinan-2-yl]-2′-C methyl-beta-D-ribofuranosyl)-7H-pyrrolo[2,3-d]pyrimidin-4(3H)-one] here?
The melting point was 192 to 195 °C.

With `C[C@@]1(O)[C@H](O)[C@@H](COP2(=O)OCC[C@H](c3cncc(Br)c3)O2)O[C@H]1n1ccc2c(=O)[nH]c(N)nc21` (stereo partly drawn) (as salt: salt) [Compound 17.26, 2-amino-7-(cis-5′-O-[4-(5-bromo-pyridin-3-yl)-2-oxo-1,3,2-dioxaphosphorinan-2-yl]-2′-C methyl-beta-D-ribofuranosyl)-7H-pyrrolo[2,3-d]pyrimidin-4(3H)-one] as the compound, how does the melting point read?
The melting point was 185 to 189 °C.

With `C[C@@]1(O)[C@H](O)[C@@H](COP2(=O)OC[C@@H](c3ccccc3)[C@@H](c3ccccc3)O2)O[C@H]1n1ccc2c(N)ncnc21` (stereo partly drawn) (as salt: trifluoroacetic acid salt) [Compound 16.13, 4-amino-7-(cis-5′-O-14,5-cis-diphenyl-2-oxo-1,3,2-dioxaphosphorinan-2-yl]-2′-C-methyl-beta-D-ribofuranosyl)-7H-pyrrolo[2,3-d]pyrimidine trifluoroacetic acid salt] as the compound, how does the melting point read?
Its melting point is 174 to 177 °C.

For `C[C@@]1(O)[C@H](O)[C@@H](COP2(=O)O[C@H](c3ccccc3)C[C@H](c3ccccc3)O2)O[C@H]1n1ccc2c(N)ncnc21` (stereo partly drawn) (as salt: trifluoroacetic acid salt) [Compound 16.16, 4-amino-7-(cis-5′-O-[4,6-cis-diphenyl-2-oxo-1,3,2-dioxaphosphorinan-2-yl]-2′-C-methyl-beta-D-ribofuranosyl)-7H-pyrrolo[2,3-d]pyrimidine trifluoroacetic acid salt], which melting point is on record?
The melting point was 140 to 143 °C.

For `C[C@@]1(O)[C@H](O)[C@@H](CO[P@@]2(=O)O[C@H](c3ccccc3)C[C@H](c3ccccc3)O2)O[C@H]1n1ccc2c(N)ncnc21` (as salt: trifluoroacetic acid salt) [Compound 16.18, 4-amino-7-(trans-5′-O-[4,6-cis-diphenyl-2-oxo-1,3,2-dioxaphosphorinan-2-yl]-2′-C-methyl-beta-D-ribofuranosyl)-7H-pyrrolo[2,3-d]pyrimidine trifluoroacetic acid salt], which melting point is on record?
Its melting point is greater than 220 °C.

Which melting point does the source give for `CO[C@@H]1COP(=O)(OC[C@H]2O[C@@H](n3ccc4c(N)ncnc43)[C@](C)(O)[C@@H]2O)O[C@@H]1c1cccc(Cl)c1` (stereo partly shown) (as salt: trifluoroacetic acid salt) [Compound 16.23] here?
The melting point was 116 to 120 °C.

With `CO[C@H]1COP(=O)(OC[C@H]2O[C@@H](n3ccc4c(N)ncnc43)[C@](C)(O)[C@@H]2O)O[C@@H]1c1cccc(Cl)c1` (stereo partly shown) (as salt: trifluoroacetic acid salt) [Compound 16.24] as the compound, how does the melting point read?
The melting point was 140 to 143 °C.

Which melting point does the source give for `C[C@@]1(O)[C@H](O)[C@@H](COP2(=O)OCC[C@H](c3ccccn3)O2)O[C@H]1n1ccc2c(N)ncnc21` (stereo partly drawn) (as salt: trifluoroacetic acid salt) [Compound 16.33, 4-amino-7-(cis-5′-O-14-(pyridin-2-yl-2-oxo-1,3,2-dioxaphosphorinan-2-yl]-2′-C-methyl-beta-D-ribofuranosyl)-7H-pyrrolo[2,3-d]pyrimidine trifluoroacetic acid salt] here?
The melting point was 88 to 90 °C.

With `C[C@@]1(O)[C@H](O)[C@@H](COP2(=O)OCC[C@H](c3ccc(Cl)cc3)O2)O[C@H]1n1ccc2c(N)ncnc21` (stereo partly drawn) (as salt: trifluoroacetic acid salt) [Compound 16.35, 4-amino-7-(cis-5′-O-[4-(4-chlorophenyl-2-oxo-1,3,2-dioxaphosphorinan-2-yl]-2′-C-methyl-beta-D-ribofuranosyl)-7H-pyrrolo[2,3-d]pyrimidinetrifluoroacetic acid salt] as the compound, how does the melting point read?
Its melting point is 182 to 184 °C.

For `C[C@@]1(O)[C@H](O)[C@@H](COP2(=O)OCC[C@H](c3cccc(F)c3F)O2)O[C@H]1n1ccc2c(N)ncnc21` (stereo partly drawn) (as salt: trifluoroacetic acid salt) [Compound 16.36, 4-amino-7-(cis-5′-O-[4-(2,3-difluorophenyl)-2-oxo-1,3,2-dioxaphosphorinan-2-yl]-2′-C-methyl-beta-D-ribofuranosyl)-7H-pyrrolo[2,3-d]pyrimidine trifluoroacetic acid salt], which melting point is on record?
The melting point was 177 to 180 °C.

For `COc1ccc(F)c([C@H]2CCOP(=O)(OC[C@H]3O[C@@H](n4ccc5c(N)ncnc54)[C@](C)(O)[C@@H]3O)O2)c1` (stereo partly drawn) (as salt: trifluoroacetic acid salt) [Compound 16.37, 4-amino-7-(cis-5′-O-[4-(2-fluoro-5-methoxyphenyl)-2-oxo-1,3,2-dioxaphosphorinan-2-yl]-2′-C-methyl-beta-D-ribofuranosyl)-7H-pyrrolo[2,3-d]pyrimidine trifluoroacetic acid salt], which melting point is on record?
Its melting point is 80 to 85 °C.

Which melting point does the source give for `C[C@@]1(O)[C@H](O)[C@@H](COP2(=O)OCC[C@H](c3ccc(F)cc3Cl)O2)O[C@H]1n1ccc2c(N)ncnc21` (stereo partly drawn) (as salt: trifluoroacetic acid salt) [Compound 16.38, 4-amino-7-(cis-5′-O-[4-(2-chloro-4-fluorophenyl)-2-oxo-1,3,2-dioxaphosphorinan-2-yl]-2′-C-methyl-beta-D-ribofuranosyl)-7H-pyrrolo[2,3-d]pyrimidine trifluoroacetic acid salt] here?
Its melting point is 138 to 141 °C.

For `C[C@@]1(O)[C@H](O)[C@@H](COP2(=O)OCC[C@@H](c3ccccn3)O2)O[C@H]1n1ccc2c(=O)[nH]c(N)nc21` (stereo partly drawn) (as salt: trifluoroacetic acid salt) [Compound 17.8, 2-amino-7-(cis-5′-O-[4-(pyridin-2-yl)-2-oxo-1,3,2-dioxaphosphorinan-2-yl]-2′-C methyl-beta-D-ribofuranosyl)-7H-pyrrolo[2,3-d]pyrimidin-4(3H)-one trifluoroacetic acid salt], which melting point is on record?
Its melting point is 180 to 190 °C.

Which melting point does the source give for `C[C@@]1(O)[C@H](O)[C@@H](COP2(=O)OCC[C@@H](c3ccccc3C(F)(F)F)O2)O[C@H]1n1ccc2c(=O)[nH]c(N)nc21` (stereo partly drawn) (as salt: trifluoroacetic acid salt) [Compound 17.9, 2-amino-7-(cis-5-O-[4-(2-trifluoromethylphenyl)-2-oxo-1,3,2-dioxaphosphorinan-2-yl]-2′-C methyl-beta-D-ribofuranosyl)-7H-pyrrolo[2,3-d]pyrimidin-4(3H)-one trifluoroacetic acid salt] here?
The melting point was 185 to 188 °C.

With `C[C@@]1(O)[C@H](O)[C@@H](CO[P@]2(=O)OCC[C@H](c3cccc(Cl)c3)O2)O[C@H]1n1ccc2c(=O)[nH]c(N)nc21` (as salt: trifluoroacetic acid salt) [Compound 17.10, 2-amino-7-(cis-5′-O-[4-(R)-(3-chlorophenyl)-2-oxo-1,3,2-dioxaphosphorinan-2-yl]-2′-C methyl-beta-D-ribofuranosyl)-7H-pyrrolo[2,3-d]pyrimidin-4(3H)-one trifluoroacetic acid salt] as the compound, how does the melting point read?
The melting point was 170 to 180 °C.

Which melting point does the source give for `C[C@@]1(O)[C@H](O)[C@@H](COP2(=O)OCC[C@H](c3cc(F)cc(F)c3)O2)O[C@H]1n1ccc2c(=O)[nH]c(N)nc21` (stereo partly drawn) (as salt: trifluoroacetic acid salt) [Compound 17.11, 2-amino-7-(cis-5-O-[4-(3,5-difluorophenyl)-2-oxo-1,3,2-dioxaphosphorinan-2-yl]-2-C methyl-beta-D-ribofuranosyl)-7H-pyrrolo[2,3-d]pyrimidin-4(3H)-one trifluoroacetic acid salt] here?
Its melting point is 182 to 185 °C.

With `C[C@@]1(O)[C@H](O)[C@@H](COP2(=O)OC[C@H](c3ccccc3)[C@H](c3ccccc3)O2)O[C@H]1n1ccc2c(=O)[nH]c(N)nc21` (stereo partly drawn) (as salt: trifluoroacetic acid salt) [Compound 17.17, 2-amino-7-(cis-5′-[4,5-cis-diphenyl-2-oxo-1,3,2-dioxaphosphorinan-2-yl]-2-C methyl-beta-D-ribofuranosyl)-7H-pyrrolo[2,3-d]pyrimidin-4(3H)-one trifluoroacetic acid salt] as the compound, how does the melting point read?
The melting point was 187 to 190 °C.

With `CC1(C)C[C@H](c2ccccc2)OP(=O)(OC[C@H]2O[C@@H](n3ccc4c(=O)[nH]c(N)nc43)[C@](C)(O)[C@@H]2O)O1` (stereo partly drawn) (as salt: trifluoroacetic acid salt) [Compound 17.18, 2-amino-7-(cis-5′-O-[6,6-dimethyl-4-phenyl-2-oxo-1,3,2-dioxaphosphorinan-2-yl]-2′C methyl-beta-D-ribofuranosyl)-7H-pyrrolo[2,3-d]pyrimidin-4(3H)-one trifluoroacetic acid salt] as the compound, how does the melting point read?
Its melting point is 192 to 194 °C.

With `C[C@@]1(O)[C@H](O)[C@@H](COP2(=O)OCC[C@H](c3cccc(F)c3F)O2)O[C@H]1n1ccc2c(=O)[nH]c(N)nc21` (stereo partly drawn) (as salt: trifluoroacetic acid salt) [Compound 17.20, 2-amino-7-(cis-5′-O[4-(2,3-difluorophenyl)-2-oxo-1,3,2-dioxaphosphorinan-2-yl]-2′-C methyl-beta-D-ribofuranosyl)-7H-pyrrolo[2,3-d]pyrimidin-4(3H)-one trifluoroacetic acid salt] as the compound, how does the melting point read?
Its melting point is 215 to 220 °C.

For `C[C@@]1(O)[C@H](O)[C@@H](COP2(=O)OCC[C@@H](c3cccc(Cl)c3)O2)O[C@H]1n1cnc2c(N)ncnc21` (stereo partly drawn) (as salt: trifluoroacetic acid salt) [Compound 21.1, cis-5′-O-[4-(S)-(3-chlorophenyl)-2-oxo-1,3,2-dioxaphosphorinan-2-yl]-2′-C-beta-methyl-adenosine trifluoroacetic acid salt], which melting point is on record?
Its melting point is 125 to 128 °C.

With `C[C@@]1(O)[C@H](O)[C@@H](COP2(=O)OCC[C@@H](c3ccccn3)O2)O[C@H]1n1cnc2c(N)ncnc21` (stereo partly drawn) (as salt: trifluoroacetic acid salt) [Compound 21.7, cis-5′-O-[4-(pyridin-2-yl)-2-oxo-1,3,2-dioxaphosphorinan-2-yl]-2′-C-beta-methyl-adenosine trifluoroacetic acid salt] as the compound, how does the melting point read?
Its melting point is 118 to 120 °C.
